According to patent publication US12077503B2, “Substituted cyclic amides and their use as herbicides” (FMC CORPORATION, priority 2015, dated 2024):

Assays:
Format in all cases: in vivo
[1] = test system: barnyardgrass (Echinochloa crus-galli); assay: Test G Pre-Emergence Protocol; details: evaluated after 13 days
Protocol: (§1) Seeds of corn (Zea mays), giant foxtail (Setaria faberi), barnyardgrass (Echinochloa crus-galli), ivy-leaved morning glory (Ipomoea hederacea), redroot pigweed (Amaranthus retroflexus) and velvetleaf (Abutilon theophrasti) were sown in standard soil in pots. After cultivation for one day under controlled conditions in a glasshouse (at 24/16° C., day/night; 14 hours light; 65% humidity), the plants were sprayed with an aqueous spray solution derived from the formulation of the technical active ingredient in acetone/water (50:50) solution containing 0.5% Tween 20 (polyoxyethylene sorbitan monolaurate, CAS RN 9005-64-5) to give a final dose of 15.625, 62.5 or 250 g/ha of test compound.
(§2) The test plants were then grown on under controlled conditions in a glasshouse (at 24/16° C., day/night; 14 hours light; 65% humidity) and watered twice daily. After 13 days the test was evaluated (100=total damage to plant; 0=no damage to plant). A dash (-) means no test result.

corn (Zea mays) [2] = assay: Test G Pre-Emergence Protocol; details: evaluated after 13 days
Protocol: as §1, §2

[3] = test system: giant foxtail (Setaria faberi); assay: Test G Pre-Emergence Protocol; details: evaluated after 13 days
Protocol: as §1, §2

[4] = test system: ivy-leaved morning glory (Ipomoea hederacea); assay: Test G Pre-Emergence Protocol; details: evaluated after 13 days
Protocol: as §1, §2

[5] = test system: redroot pigweed (Amaranthus retroflexus); assay: Test G Pre-Emergence Protocol; details: evaluated after 13 days
Protocol: as §1, §2

[6] = test system: velvetleaf (Abutilon theophrasti); assay: Test G Pre-Emergence Protocol; details: evaluated after 13 days
Protocol: as §1, §2

[7] = test system: barnyardgrass (Echinochloa crus-galli); assay: Test G Post-Emergence Protocol
Protocol: as §1, with “8 days” for “one day”
as §2

corn (Zea mays) [8] = assay: Test G Post-Emergence Protocol
Protocol: as §1, with “8 days” for “one day”
as §2

[9] = test system: giant foxtail (Setaria faberi); assay: Test G Post-Emergence Protocol
Protocol: as §1, with “8 days” for “one day”
as §2

[10] = test system: ivy-leaved morning glory (Ipomoea hederacea); assay: Test G Post-Emergence Protocol
Protocol: as §1, with “8 days” for “one day”
as §2

[11] = test system: redroot pigweed (Amaranthus retroflexus); assay: Test G Post-Emergence Protocol
Protocol: as §1, with “8 days” for “one day”
as §2

[12] = test system: velvetleaf (Abutilon theophrasti); assay: Test G Post-Emergence Protocol
Protocol: as §1, with “8 days” for “one day”
as §2

[13] = 62.5 g ai/ha, 100=total damage to plant, 0=no damage to plant
[14] = 15.625 g ai/ha, evaluated after 13 days (100=total damage to plant; 0=no damage to plant)
[15] = 62.5 g ai/ha, evaluated after 13 days
[16] = 250 g ai/ha, evaluated after 13 days
[17] = 62.5 g ai/ha, evaluated after 13 days, 100=total damage to plant, 0=no damage to plant
[18] = 250 g ai/ha, evaluated after 13 days, 100=total damage to plant, 0=no damage to plant

Structure (SMILES)	Barnyardgrass damage rating (100=total damage to plant; 0=no damage to plant) ([1]; 15.625 g ai/ha)	Barnyardgrass damage rating (100=total damage to plant; 0=no damage to plant) ([1]; 250 g ai/ha)	Corn damage rating (100=total damage to plant; 0=no damage to plant) (corn (Zea mays) [2]; 15.625 g ai/ha)	Corn damage rating (100=total damage to plant; 0=no damage to plant) (corn (Zea mays) [2]; 250 g ai/ha)	Foxtail, Giant damage rating (100=total damage to plant; 0=no damage to plant) ([3]; 15.625 g ai/ha)	Foxtail, Giant damage rating (100=total damage to plant; 0=no damage to plant) ([3]; 250 g ai/ha)	Morningglory, Ivy-leaved damage rating (100=total damage to plant; 0=no damage to plant) ([4]; 250 g ai/ha)	Pigweed, Redroot damage rating (100=total damage to plant; 0=no damage to plant) ([5]; 15.625 g ai/ha)	Pigweed, Redroot damage rating (100=total damage to plant; 0=no damage to plant) ([5]; 250 g ai/ha)	Velvetleaf damage rating (100=total damage to plant; 0=no damage to plant) ([6]; 15.625 g ai/ha)	Velvetleaf damage rating (100=total damage to plant; 0=no damage to plant) ([6]; 250 g ai/ha)	Barnyardgrass damage rating [7, 14]	Corn damage rating (corn (Zea mays) [8]; [14])	Foxtail, Giant damage rating [9, 14]	Morningglory, Ivy-leaved damage rating [10, 14]	Pigweed, Redroot damage rating [11, 14]	Velvetleaf damage rating [12, 14]	Barnyardgrass damage rating [1, 13]	Corn damage rating (corn (Zea mays) [2]; [13])	Foxtail, Giant damage rating [3, 13]	other results
Cc1ccc(NC(=O)C2C(=O)N(C)CC2c2ccc(C(F)(F)F)cc2)c([N+](=O)[O-])c1 (racemic) [Compound 1592]	0	50	0	0	0	70	10	0	30	0	0	0	0	0	0	0	0	–	–	–	plant damage rating, Barnyardgrass [1, 13]: 10; plant damage rating, Corn (corn (Zea mays) [2]; [13]): 0; plant damage rating, Foxtail, Giant [3, 13]: 20; Morning-glory, Ivy-leaved damage rating (100=total damage to plant; 0=no damage to plant) ([4]; 15.625 g ai/ha): 10; plant damage rating, Morningglory, Ivy-leaved [4, 13]: 0; plant damage rating, Pigweed, Redroot [5, 13]: 0; plant damage rating, Velvetleaf [6, 13]: 0; Barnyardgrass damage rating (100=total damage to plant; 0=no damage to plant) [7, 15]: 10; damage to plant, Barnyardgrass (100=total damage to plant; 0=no damage to plant) [7, 16]: 30; Corn damage rating (100=total damage to plant; 0=no damage to plant) (corn (Zea mays) [8]; [15]): 0; damage to plant, Corn (100=total damage to plant; 0=no damage to plant) (corn (Zea mays) [8]; [16]): 10; Foxtail, Giant damage rating (100=total damage to plant; 0=no damage to plant) [9, 15]: 60; damage to plant, Foxtail, Giant (100=total damage to plant; 0=no damage to plant) [9, 16]: 70; Morningglory, Ivy-leaved damage rating (100=total damage to plant; 0=no damage to plant) [10, 15]: 40; damage to plant, Morningglory, Ivy-leaved (100=total damage to plant; 0=no damage to plant) [10, 16]: 60; Pigweed, Redroot damage rating (100=total damage to plant; 0=no damage to plant) [11, 15]: 0; damage to plant, Pigweed, Redroot (100=total damage to plant; 0=no damage to plant) [11, 16]: 10; Velvetleaf damage rating (100=total damage to plant; 0=no damage to plant) [12, 15]: 10; damage to plant, Velvetleaf (100=total damage to plant; 0=no damage to plant) [12, 16]: 10
CN1C[C@H](c2ccc(C(F)(F)F)cc2)[C@@H](C(=O)Nc2c[n+]([O-])ccc2C(F)(F)F)C1=O (racemic) [Compound 1732]	0	0	0	0	0	50	0	0	10	0	10	0	0	0	0	0	0	0	0	20	Morningglory, Ivy-leaved damage rating (100=total damage to plant; 0=no damage to plant) ([4]; 15.625 g ai/ha): 0; Morningglory, Ivy-leaved damage rating [4, 13]: 0; Pigweed, Redroot damage rating [5, 13]: 0; Velvetleaf damage rating [6, 13]: 0; Barnyardgrass damage rating [7, 17]: 0; Barnyardgrass damage rating [7, 18]: 20; Corn damage rating (corn (Zea mays) [8]; [17]): 0; Corn damage rating (corn (Zea mays) [8]; [18]): 0; Foxtail, Giant damage rating [9, 17]: 10; Foxtail, Giant damage rating [9, 18]: 50; Morningglory, Ivy-leaved damage rating [10, 17]: 0; Morningglory, Ivy-leaved damage rating [10, 18]: 0; Pigweed, Redroot damage rating [11, 17]: 10; Pigweed, Redroot damage rating [11, 18]: 20; Velvetleaf damage rating [12, 17]: 10; Velvetleaf damage rating [12, 18]: 0
CN1C[C@@H](c2ccc(C(F)(F)F)cc2)[C@H](C(=O)Nc2cccnc2F)C1=O [Compound 1768]	0	0	0	0	0	0	0	0	0	0	0	0	0	0	0	0	0	0	0	0	Morningglory, Ivy-leaved damage rating (100=total damage to plant; 0=no damage to plant) ([4]; 15.625 g ai/ha): 0; Morningglory, Ivy-leaved damage rating [4, 13]: 0; Pigweed, Redroot damage rating [5, 13]: 0; Velvetleaf damage rating [6, 13]: 0; Barnyardgrass damage rating [7, 17]: 0; Barnyardgrass damage rating [7, 18]: 0; Corn damage rating (corn (Zea mays) [8]; [17]): 0; Corn damage rating (corn (Zea mays) [8]; [18]): 0; Foxtail, Giant damage rating [9, 17]: 0; Foxtail, Giant damage rating [9, 18]: 0; Morningglory, Ivy-leaved damage rating [10, 17]: 0; Morningglory, Ivy-leaved damage rating [10, 18]: 0; Pigweed, Redroot damage rating [11, 17]: 0; Pigweed, Redroot damage rating [11, 18]: 0; Velvetleaf damage rating [12, 17]: 0; Velvetleaf damage rating [12, 18]: 0
CN1C[C@H](c2cccc(C(F)(F)F)c2)[C@@H](C(=O)Nc2cccc(F)n2)C1=O [Compound 1816]	90	90	70	80	90	90	80	0	80	0	60	80	70	80	10	10	0	90	80	90	Morningglory, Ivy-leaved damage rating (100=total damage to plant; 0=no damage to plant) ([4]; 15.625 g ai/ha): 20; Morningglory, Ivy-leaved damage rating [4, 13]: 60; Pigweed, Redroot damage rating [5, 13]: 40; Velvetleaf damage rating [6, 13]: 20; Barnyardgrass damage rating [7, 17]: 80; Barnyardgrass damage rating [7, 18]: 80; Corn damage rating (corn (Zea mays) [8]; [17]): 80; Corn damage rating (corn (Zea mays) [8]; [18]): 80; Foxtail, Giant damage rating [9, 17]: 80; Foxtail, Giant damage rating [9, 18]: 80; Morningglory, Ivy-leaved damage rating [10, 17]: 60; Morningglory, Ivy-leaved damage rating [10, 18]: 70; Pigweed, Redroot damage rating [11, 17]: 40; Pigweed, Redroot damage rating [11, 18]: 70; Velvetleaf damage rating [12, 17]: 30; Velvetleaf damage rating [12, 18]: 30
